Test [1] deals with IDH mutant chondrosarcoma cells (HT-1080 and SW 1353). The experiment in a line: NK killing of chondrosarcoma cells. The note with it: different doses of ATRA, 48 hours; at least two chondrosarcoma cell lines. The format is cell-based. As for the experimental part: IDH WT chondrosarcoma cells and IDH mutant chondrosarcoma cells were treated with different doses of ATRA or DMSO for 48 hours and were evaluated for killing by NK cells (FIG. 11F). NK cytotoxicity on IDH WT chondrosarcoma cells and IDH mutant chondrosarcoma cells was evaluated.

The subject of test [2] is CCL2 and CXCL12 in IDH mutant cells. As to the kind of experiment: Chemokine array on culture supernatants. The format is cell-based, human. As for the experimental part: (§1) ATRA increases chemotaxis towards IDH mutant cells in a CCL2-dependent manner. […] To confirm these findings, chemotaxis assays were performed in vitro. ATRA-treated IDH mutant or WT cells were plated in the bottom well of a transwell. Different immune cell subsets (as indicated) were placed in the top chamber at a 10:1 E:T ratio. After 48 hours, cells from the bottom chamber were harvested and analyzed by flow cytometry. […] To evaluate the mechanisms of changes in chemotaxis induced by ATRA, a chemokine array was performed. Supernatants from ATRA- (or DMSO)-treated WT and IDH mutant cultures were used to assess changes in chemokine expression using a chemokine array kit (R&D systems). Results were interpreted visually as well as quantified using an imaging software (ImageJ). […] To substantiate the role of CCL2 in NK and T cell chemotaxis, transwell assays were repeated as described earlier, in the presence of CCL2-blocking antibody (R&D systems).

Test [3] concerns diffuse IDH mutant glioma. The experiment in a line: ATRA therapy in a human patient, MRI before and after. Type of test: in vivo. The settings on record: 40 mg/m2 ATRA, 21 days on, 7 days off, three months. As for the experimental part: A patient with diffuse IDH mutant glioma was treated with 40 mg/m2 ATRA on a treatment cycle of 21 days on, 7 days off. MRI images of the patient's brain were performed before (FIG. 12A) and after (FIG. 12B) ATRA treatment.

The test system of test [4] is IDH mutant (HT-1080, R132C IDH1 mutation) chondrosarcoma cells. As to the kind of experiment: Viability and apoptosis of chondrosarcoma cells. The format is cell-based. The note with it: 48 hours. As for the experimental part:
IDH mutant (HT-1080, R132C IDH1 mutation) chondrosarcoma cells were treated with different doses of ATRA or DMSO for 48 hours. After treatment, cells were evaluated for viability (FIG. 11A) and apoptosis by caspase activity (FIG. 11B). […] Additionally, IDH WT cells and IDH mutant chondrosarcoma cells were treated with different doses of ATRA or DMSO for 48 hours.

A further test relates to IDH mutant gliomas. The experiment in a line: Survival in RCAS tva immunocompetent glioma mouse model. The format is in vivo, mice. As for the experimental part: Immunocompetent mouse model. The RCAS/tva system was used to ectopically express muIDH1 (R132H) in PDGF-driven gliomas. RCAS retroviral vectors were used to transfer genes to specific cell types in vivo that express the receptor tva to develop a pair of isogenic mouse tumor models that differ only in IDH1 mutation status. Three RCAS vectors expressing PDGF, wtIDH1-shp53, or muIDH1 (R132H)-shp53 were constructed and used in three different Ntva mouse strains. Mice were injected with RCAS-PDGF-producing DF1 cells together with either DF1 cells producing RCAS-wtIDH1-shp53 (wtIDH1) or RCAS-mutantIDH1-shp53 (muIDH1). Tumors were generated from these injections with identical genomic backgrounds, with the initiating events differing only in IDH1 mutation status.

Test [5] relates to IDH mutant cells from primary gliomas. The experiment in a line: Gene microarray (Clariom S) and pathway analysis. The format is cell-based, human. As for the experimental part: To evaluate overall gene expression changes and to decipher pathway activation in IDH mutants after ATRA treatment, a gene microarray was performed. IDH wt and mutant cells from primary gliomas were treated with 1 μM ATRA for 48 hours and RNA was extracted from the cells. Microarray analysis was performed using Clariom S microarray chips.

Test [6] relates to NKG2D ligands in IDH mutant cells. As to the kind of experiment: qPCR of NKG2D ligand expression in ATRA-treated glioma cells. The settings on record: 1 μM ATRA 48 hours, vs DMSO-treated cells. The format is cell-based, human. As for the experimental part:
All-trans Retinoic acid (ATRA) treatment of astrocytes and primary glioma cells. ATRA was purchased from Sigma Aldrich® and reconstituted in DMSO. ATRA was added at a 1 μM final concentration to cell culture medium for 48 hours. After treatment, the cells either lysed in Trizol™ for qPCR analysis, or were used in NK cytotoxicity assays.
Quantitative Real time RT-PCR. 5×10^5 IDH mutant and WT astrocytes, as well as patient glioma cells were lyzed in Trizol and RNA was extracted from the cells using the Chloroform extraction method. cDNA was transcribed from the RNA using iScript cDNA synthesis kit (BioRad). Real-time PCR was performed on an CFX96 Touch™ Real-Time PCR Detection System (Bio-Rad) equipped with a 96-well reaction plate. Briefly, 2 μL cDNA was added to 5 μL of the 2×SYBR Green PCR mastermix (Thermo Scientific), 800 nM of each primer, and water was added to 10 μL. The thermal denaturation protocol was run at the end of the PCR to determine the number of products that were present in the reaction. Reactions were typically run in triplicates. The cycle number at which the reaction crossed an arbitrarily-placed threshold (CT) was determined for each gene and the relative amount of each gene to 18 S rRNA was described using the equation 2^−ΔCT where ΔCT=(CTtargetRNA−CT18S rRNA).
ATRA induced increased cytotoxic killing of IDH mutant cells in an NKG2D-ligand dependent manner. The ability of ATRA to sensitize IDH mutant cells to killing by NK cells was evaluated. For this purpose, IDH mutant and WT cells were treated with 1 μM ATRA for 48 hours and assessed for killing by NK-92 cells (ATCC) at a 10:1 E:T ratio. […] Also, as observed in vivo, increased NK-92 killing in IDH mutant cells was dependent upon NKG2D engagement. […] ATRA-treated cells were also evaluated for expression of NKG2D ligands.

Test [7] concerns ATRA-treated IDH mutant cells. The experiment in a line: Transwell chemotaxis assay of immune cell subsets. Type of test: cell-based, human. As for the experimental part: as §1
[8] abbreviates: towards ATRA-treated IDH mutant cells vs DMSO-treated controls, 48 hours.
The mark [9] stands for this setting: towards ATRA-treated IDH mutant cells, 48 hours.

`CC1=C(/C=C/C(C)=C/C=C/C(C)=C/C(=O)O)C(C)(C)CCC1` [ATRA, all-trans retinoic acid]: the NK-mediated cell killing entry in test [1] was “increased NK-mediated cell killing of IDH mutant chondrosarcoma cells”. Further, the “levels of CXCL12” value in test [2] (ATRA-treated IDH mutant cells vs DMSO-treated controls) is given as “lower levels of CXCL12”. The CCL2 production entry in test [2] (supernatants of ATRA- or DMSO-treated WT and IDH mutant cultures) is “CCL2 production was only observed in ATRA treated IDH mutant cells”. For the same compound, the “glioma tumor on MRI” value in test [3] is “reduction in the size and severity of the glioma tumor”. In test [4] (HT-1080, different doses), the “apoptosis by caspase activity” value was “induced apoptotic cell death” and the cell viability result is given as “decreased cell viability”. Also, the “7-AAD levels (flow cytometry)” value in test [4] (IDH WT and IDH mutant chondrosarcoma cells, different doses) is recorded as “increased 7-AAD levels corresponding to increased apoptotic cell death in a dose-dependent manner”. Moreover, in the test on IDH mutant gliomas (ATRA-treated mice), the “infiltration of NK cells in the tumor (immunohistochemistry)” value is “increased infiltration of NK cells in the tumor”. Besides, the survival entry in the test on IDH mutant gliomas (mice bearing IDH mutant tumors, ATRA every alternate day for 21 days, vs vehicle-treated/IDH wild type) is listed as “significantly longer survival”. Moreover, the “gene expression of inflammatory chemokines CXCL1, CXCL9 and CXCL10” value in test [5] (1 μM ATRA 48 hours (data not shown)) is on record as “upregulated the gene expression of multiple inflammatory chemokines”. Moreover, the “pathway analysis of upregulated genes” value in test [5] (IDH mutant cells, 1 μM ATRA 48 hours) is on record as “immune cell chemotaxis was one of the most upregulated pathways”. Moreover, in test [6], the “expression of NKG2D ligand MICA” value is listed as “increased expression”, the “expression of NKG2D ligand MICB” value was “increased expression”, the “expression of NKG2D ligand ULBP1” value was “increased expression” and the “expression of NKG2D ligand ULBP3” value is recorded as “increased expression”. Moreover, in test [7] (ATRA-treated IDH mutant cells), the “NK and T cell migration in the presence of CCL2-blocking antibody” value was “reversed the increased NK (FIG. 6M) and T cell (FIG. 6N) migration”; the “migration of Tregs in the presence of CCL2-blocking antibody” value is “did not impact the migration of Tregs”. For the same compound, in test [7] (setting [8]), the “migration of CD8+ T cells” value is recorded as “increased migration”, the “migration of M1 macrophages” value is “increased migration” and the “migration of NK cells” value is on record as “increased migration”. Also, in test [7] (setting [9]), the “migration of M2 macrophages” value is “decreased migration”, the “migration of Monocytes” value is on record as “decreased migration” and the “migration of Tregs” value is reported as “decreased migration”.

(Values after patent US10821091B2, “Retinoid compositions and methods of increasing immune cell-mediated killing of IDH mutant cancer cells” (UNIVERSITY OF PITTSBURGH—OF THE COMMONWEALTH SYSTEM OF …, priority 2017, dated 2020).)
